Measurements from patent USRE41149E1, “Optically active pyridonecarboxylic acid derivatives” (Daiichi Sankyo Company, Limited, priority 1988, dated 2010).
Values after ≈ are worked out from the molar mass of the structure shown. Where a name gives a salt, the structure may show the parent alone.

Tests used:
E. coli., NIHJ = assay: Antimicrobial activity (MIC), standard method of Nippon Kagakuryoho Gakkai; assay type: cell-based; details: for MIC: Escherichia coli
Protocol: (§1) Antimicrobial activity of the optically active compounds prepared in Examples was evaluated in accordance with the standard method specified by Nippon […], and results obtained are shown in Table 1 which precedes the claims herein in terms of minimum inhibitory concentration (MIC: […]).

Pr. vulgaris, 08601 = assay: as above; assay type: cell-based; details: for MIC: Proteus vulgaris
Protocol: as §1

Ps. aeruginosa, 32104 = assay: as above; assay type: cell-based; details: for MIC: Pseudomonas aeruginosa, 32104, Ps. aeruginosa; for Antimicrobial activity (MIC): Ps. aeruginosa
Protocol: as §1

Ps. aeruginosa, 32121 = assay: as above; assay type: cell-based; details: for MIC: Pseudomonas aeruginosa, 32121, Ps. aeruginosa; for Antimicrobial activity (MIC): Ps. aeruginosa
Protocol: as §1

S. aureus, 209 P = assay: as above; assay type: cell-based; details: for MIC: Staphylococcus aureus
Protocol: as §1

S. epidermidis, 56500 = assay: as above; assay type: cell-based; details: for MIC: Staphylococcus epidermidis, 56500, S. epidermidis; for Antimicrobial activity (MIC): S. epidermidis
Protocol: as §1

Ser. marcescens, 10100 = assay: as above; assay type: cell-based; details: for MIC: Serratia marcescens, 10100, Ser. marcescens; for Antimicrobial activity (MIC): Ser. marcescens
Protocol: as §1

[1] = system: Str. faecalis, ATCC 19433; assay: as above; assay type: cell-based; details: for MIC: Enterococcus faecalis, ATCC19433, Str. faecalis; for Antimicrobial activity (MIC): Str. faecalis
Protocol: as §1

Compound	melting point	MIC (E. coli., NIHJ)	MIC (Pr. vulgaris, 08601)	MIC (Ps. aeruginosa, 32104)	MIC (Ps. aeruginosa, 32121)	MIC (S. aureus, 209 P)	MIC (S. epidermidis, 56500)	MIC (Ser. marcescens, 10100)	MIC [1]	Antimicrobial activity (MIC) (Ps. aeruginosa, 32104)	Antimicrobial activity (MIC) (Ps. aeruginosa, 32121)	Antimicrobial activity (MIC) (S. aureus, 209 P)	Antimicrobial activity (MIC) (S. epidermidis, 56500)	Antimicrobial activity (MIC) (Ser. marcescens, 10100)	Antimicrobial activity (MIC) [1]	Antimicrobial activity (MIC) (E. coli., NIHJ)	Antimicrobial activity (MIC) (Pr. vulgaris, 08601)
Cc1c(N2CC[C@@H]([C@H](C)N)C2)c(F)cc2c(=O)c(C(=O)O)cn(C3CC3F)c12 (single isomer, unassigned; (-)) (as salt: hydrochloride) [Compound 54b]	149 to 153 °C																
C[C@H](N)[C@@H]1CCN(c2c(F)cc3c(=O)c(C(=O)O)cn(C4CC4F)c3c2Cl)C1 (single isomer, unassigned; (-)) [Compound 34b]	204 to 207 °C	< 0.1 mg/L	< 0.1 mg/L	0.1 mg/L (≈ 0.243 µM)	< 0.1 mg/L	< 0.1 mg/L	< 0.1 mg/L	< 0.1 mg/L	< 0.1 mg/L								
Cc1c(N2CC[C@@H]([C@H](C)N)C2)c(F)cc2c(=O)c(C(=O)O)cn(C3CC3F)c12 (single isomer, unassigned; (-)) [Compound 54b, hydrochloride]		< 0.1 mg/L	< 0.1 mg/L	0.2 mg/L	0.1 mg/L	< 0.1 mg/L	< 0.1 mg/L	0.1 mg/L	0.1 mg/L								
CC1(C)CN(c2c(F)cc3c(=O)c(C(=O)O)cn([C@@H]4C[C@@H]4F)c3c2Cl)CC1N (single isomer, unassigned; (-)) [Compound 59b]	118 to 121 °C	< 0.1 mg/L	< 0.1 mg/L	0.2 mg/L (≈ 0.486 µM)	< 0.1 mg/L	< 0.1 mg/L	< 0.1 mg/L	< 0.1 mg/L	0.1 mg/L (≈ 0.243 µM)								
NC1CN(c2c(F)cc3c(=O)c(C(=O)O)cn(C4CC4F)c3c2Cl)CC12CC2 (stereo not shown) [Compound 26ba]		< 0.1 mg/L	< 0.1 mg/L							0.20 mg/L	0.10 mg/L	<0.1 mg/L	0.20 mg/L	<0.1 mg/L	0.39 mg/L		
(+)-5-Amino-7-[3-(S)-amino-1-pyrrolidinyl]-6,8-difluoro-1-(1,2-cis-2-fluoro-1-cyclopropyl)-4-oxo-1,4-dihydroquinoline-3-carboxylic acid [Compound 18b]										<0.1 mg/L	<0.1 mg/L	<0.1 mg/L	<0.1 mg/L	<0.1 mg/L	0.10 mg/L	<0.1 mg/L	<0.1 mg/L
(+)-7-[3-(S)-Amino-1-pyrrolidinyl]-8-chloro-6-fluoro-1-(1,2-cis-2-fluoro-1-cyclopropyl)-4-oxo-1,4-dihydroquinoline-3-carboxylic acid [Compound 13a]										<0.1 mg/L	<0.1 mg/L	<0.1 mg/L	<0.1 mg/L	<0.1 mg/L	0.20 mg/L	<0.1 mg/L	<0.1 mg/L
(−)-5-Amino-7-[3-(S)-amino-1-pyrrolidinyl]-6,8-difluoro-1-(1,2-cis-2-fluoro-1-cyclopropyl)-4-oxo-1,4-dihydroquinoline-3-carboxylic acid [Compound 18a]										<0.1 mg/L	<0.1 mg/L	<0.1 mg/L	<0.1 mg/L	<0.1 mg/L	0.20 mg/L	<0.1 mg/L	<0.1 mg/L
(−)-7-[3-(S)-Amino-1-pyrrolidinyl]-8-chloro-6-fluoro-1-(1,2-cis-2-fluoro-1-cyclopropyl)-4-oxo-1,4-dihydroquinoline-3-carboxylic acid [Compound 13b]										<0.1 mg/L	<0.1 mg/L	<0.1 mg/L	<0.1 mg/L	<0.1 mg/L	0.20 mg/L	<0.1 mg/L	<0.1 mg/L
